From US6423689B1, “Peptidyl calcium channel blockers” (Warner-Lambert Company, priority 1997, dated 2002)
pIC50: −log10 of the molar value.

Molecular target: T1, N-type Ca2+ channels in IMR-32 cells (Homo sapiens, UniProt Q00975)
T1 construct: host or cells: IMR-32 cells, differentiated with dibutyryl cAMP and bromodeoxyuridine
Assay: Inhibition of N-type calcium flux in IMR-32 cells (Indo-1 fluorescence, nitrendipine present)
Format: cell-based
Conditions: for inhibition at 1 µM / inhibition at 10 µM: IMR-32; for pIC50: IMR-32 cells, 5 μM nitrendipine, K+ depolarization
Method in brief: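 With L-type flux blocked by 5 μM nitrendipine, N-type Ca2+ entry was read as the Indo-1 emission ratio (400/490 nm, excitation 350 nm) at 30° C after KCl depolarization.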

T1 sequence (Q00975 whole entry): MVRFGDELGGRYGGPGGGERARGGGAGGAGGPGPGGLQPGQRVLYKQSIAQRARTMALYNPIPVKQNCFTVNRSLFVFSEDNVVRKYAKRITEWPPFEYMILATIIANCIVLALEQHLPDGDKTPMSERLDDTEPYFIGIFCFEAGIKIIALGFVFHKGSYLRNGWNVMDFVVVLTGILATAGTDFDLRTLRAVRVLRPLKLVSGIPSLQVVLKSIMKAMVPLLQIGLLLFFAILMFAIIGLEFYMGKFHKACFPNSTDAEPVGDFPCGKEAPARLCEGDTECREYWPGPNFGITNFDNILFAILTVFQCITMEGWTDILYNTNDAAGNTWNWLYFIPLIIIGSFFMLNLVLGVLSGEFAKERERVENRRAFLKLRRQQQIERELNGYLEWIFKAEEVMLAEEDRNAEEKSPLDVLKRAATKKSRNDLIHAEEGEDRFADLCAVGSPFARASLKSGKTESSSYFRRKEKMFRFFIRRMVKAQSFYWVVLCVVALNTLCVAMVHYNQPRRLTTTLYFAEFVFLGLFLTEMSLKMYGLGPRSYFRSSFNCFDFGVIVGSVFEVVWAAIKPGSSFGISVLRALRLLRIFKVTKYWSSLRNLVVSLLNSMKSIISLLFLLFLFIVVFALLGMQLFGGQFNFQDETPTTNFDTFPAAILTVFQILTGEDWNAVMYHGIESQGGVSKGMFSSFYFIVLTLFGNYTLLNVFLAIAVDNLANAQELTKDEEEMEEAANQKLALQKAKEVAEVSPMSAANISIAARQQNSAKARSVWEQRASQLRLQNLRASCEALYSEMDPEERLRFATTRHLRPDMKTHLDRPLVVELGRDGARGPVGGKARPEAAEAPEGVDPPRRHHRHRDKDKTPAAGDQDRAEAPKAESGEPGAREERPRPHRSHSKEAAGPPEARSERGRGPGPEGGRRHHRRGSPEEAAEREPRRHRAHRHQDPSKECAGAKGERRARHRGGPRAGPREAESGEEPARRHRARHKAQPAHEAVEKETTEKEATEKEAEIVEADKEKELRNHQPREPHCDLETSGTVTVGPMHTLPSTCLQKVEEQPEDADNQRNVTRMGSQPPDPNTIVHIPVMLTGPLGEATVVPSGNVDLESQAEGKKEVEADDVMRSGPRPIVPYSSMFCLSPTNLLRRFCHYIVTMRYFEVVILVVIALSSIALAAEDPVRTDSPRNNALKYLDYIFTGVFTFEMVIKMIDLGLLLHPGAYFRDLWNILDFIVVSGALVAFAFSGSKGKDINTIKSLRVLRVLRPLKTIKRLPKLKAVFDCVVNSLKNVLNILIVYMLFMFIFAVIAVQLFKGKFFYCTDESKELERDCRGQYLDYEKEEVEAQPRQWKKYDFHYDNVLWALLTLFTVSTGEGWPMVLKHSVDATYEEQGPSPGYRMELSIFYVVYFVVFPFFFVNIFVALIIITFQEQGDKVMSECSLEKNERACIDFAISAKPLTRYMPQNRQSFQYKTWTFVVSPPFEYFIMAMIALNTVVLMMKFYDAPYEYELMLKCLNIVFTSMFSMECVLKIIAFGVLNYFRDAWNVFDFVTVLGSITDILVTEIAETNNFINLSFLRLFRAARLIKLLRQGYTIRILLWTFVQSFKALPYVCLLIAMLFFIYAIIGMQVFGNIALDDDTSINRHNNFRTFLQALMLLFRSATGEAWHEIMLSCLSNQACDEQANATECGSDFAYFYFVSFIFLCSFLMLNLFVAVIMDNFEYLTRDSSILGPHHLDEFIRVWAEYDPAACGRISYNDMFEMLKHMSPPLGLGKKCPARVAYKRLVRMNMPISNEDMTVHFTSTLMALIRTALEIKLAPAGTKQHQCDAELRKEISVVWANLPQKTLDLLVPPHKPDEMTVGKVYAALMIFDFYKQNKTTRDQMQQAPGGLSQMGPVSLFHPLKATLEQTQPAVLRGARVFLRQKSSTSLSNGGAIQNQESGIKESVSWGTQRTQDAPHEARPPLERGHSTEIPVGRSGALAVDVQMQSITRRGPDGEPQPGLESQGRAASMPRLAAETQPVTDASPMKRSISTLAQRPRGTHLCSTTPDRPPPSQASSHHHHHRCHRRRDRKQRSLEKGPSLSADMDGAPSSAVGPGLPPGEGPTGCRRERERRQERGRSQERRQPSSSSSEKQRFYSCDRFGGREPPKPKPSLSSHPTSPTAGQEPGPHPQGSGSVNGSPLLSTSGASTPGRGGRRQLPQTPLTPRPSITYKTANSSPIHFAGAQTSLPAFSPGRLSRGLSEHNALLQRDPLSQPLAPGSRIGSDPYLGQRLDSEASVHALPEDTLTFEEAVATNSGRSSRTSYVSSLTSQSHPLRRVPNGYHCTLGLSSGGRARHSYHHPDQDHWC
T1 sequence (P54289 25-956 partner limits assumed): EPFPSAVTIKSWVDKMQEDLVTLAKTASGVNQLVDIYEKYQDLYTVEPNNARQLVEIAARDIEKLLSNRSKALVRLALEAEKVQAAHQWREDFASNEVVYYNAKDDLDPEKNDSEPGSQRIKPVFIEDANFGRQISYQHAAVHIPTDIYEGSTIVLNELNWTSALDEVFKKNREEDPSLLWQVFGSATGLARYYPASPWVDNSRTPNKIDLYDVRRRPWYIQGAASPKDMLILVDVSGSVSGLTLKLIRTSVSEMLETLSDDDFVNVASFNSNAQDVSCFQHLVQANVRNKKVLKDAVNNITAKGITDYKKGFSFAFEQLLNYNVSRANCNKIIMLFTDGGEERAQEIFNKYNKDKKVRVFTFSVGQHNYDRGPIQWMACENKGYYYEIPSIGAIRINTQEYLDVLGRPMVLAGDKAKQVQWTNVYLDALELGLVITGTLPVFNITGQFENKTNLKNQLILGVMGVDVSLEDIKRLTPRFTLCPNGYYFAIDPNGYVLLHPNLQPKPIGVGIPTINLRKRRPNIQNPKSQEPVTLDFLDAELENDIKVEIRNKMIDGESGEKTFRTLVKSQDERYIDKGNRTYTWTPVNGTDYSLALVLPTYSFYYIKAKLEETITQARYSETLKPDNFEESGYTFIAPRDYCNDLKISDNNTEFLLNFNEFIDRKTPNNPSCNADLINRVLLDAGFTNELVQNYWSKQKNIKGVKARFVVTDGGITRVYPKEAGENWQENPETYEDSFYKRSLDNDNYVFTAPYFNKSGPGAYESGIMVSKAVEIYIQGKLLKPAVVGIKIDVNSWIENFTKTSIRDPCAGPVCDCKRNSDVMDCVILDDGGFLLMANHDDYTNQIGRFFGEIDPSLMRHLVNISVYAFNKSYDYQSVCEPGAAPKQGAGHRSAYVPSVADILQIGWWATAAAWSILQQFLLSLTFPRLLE
T1 sequence (P54289 957-1103 partner limits assumed): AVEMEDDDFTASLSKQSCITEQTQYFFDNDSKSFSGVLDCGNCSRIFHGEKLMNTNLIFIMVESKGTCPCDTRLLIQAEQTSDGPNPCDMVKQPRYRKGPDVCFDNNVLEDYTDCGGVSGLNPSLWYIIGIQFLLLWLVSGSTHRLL
T1 sequence (P54284 whole entry partner): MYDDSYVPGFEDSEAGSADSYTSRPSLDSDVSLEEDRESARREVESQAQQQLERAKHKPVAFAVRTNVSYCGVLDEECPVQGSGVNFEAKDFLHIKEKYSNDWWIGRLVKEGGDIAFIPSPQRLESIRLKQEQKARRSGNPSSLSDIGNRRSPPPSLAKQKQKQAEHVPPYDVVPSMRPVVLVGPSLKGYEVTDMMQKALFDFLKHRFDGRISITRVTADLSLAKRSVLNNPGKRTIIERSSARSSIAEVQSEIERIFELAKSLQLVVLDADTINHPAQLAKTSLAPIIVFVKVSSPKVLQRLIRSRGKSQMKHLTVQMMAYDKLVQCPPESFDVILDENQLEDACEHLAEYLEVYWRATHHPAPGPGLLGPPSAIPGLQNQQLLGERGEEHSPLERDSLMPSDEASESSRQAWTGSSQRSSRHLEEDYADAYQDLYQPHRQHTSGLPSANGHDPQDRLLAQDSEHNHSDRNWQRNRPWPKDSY

| SMILES | inhibition at 1 µM | inhibition at 10 µM | pIC50 | other results |
| --- | --- | --- | --- | --- |
| CC(C)C[C@H](NC(=O)N1CCCCCC1)C(=O)N[C@@H](Cc1ccc(OCc2ccccc2)cc1)C(=O)NCCCN1CCN(C)CC1 [Example 187, [S-(R*,R*)]-Azepane-1-carboxylic acid (1-{2-(4-benzyloxy-phenyl)-1-[3-(4-methyl-piperazin-1-yl)-propylcarbamoyl]-ethylcarbamoyl}-3-methyl-butyl)-amide] | 20% | 77% | 5.40 |  |
| CC(C)C[C@H](NC(=O)N1CCCCCC1)C(=O)N[C@@H](Cc1ccc(OCc2ccccc2)cc1)C(=O)NCC1CCNCC1 [Example 262, [S-(R*,R*)]-Azepane-1-carboxylic acid (1-{-2-(4-benzyloxy-phenyl)-1-[(piperidin-4-ylmethyl)-carbamoyl]-ethylcarbamoyl]-3-methyl-butyl}-amide] |  | 17% | 4.29 |  |
| CC(C)C[C@H](NC(=O)N1CCCCCC1)C(=O)N[C@@H](Cc1ccc(OCc2ccccc2)cc1)C(=O)N1CCc2ccccc2C1 [Example 201, [S-(R*,R*)]-Azepane-1-carboxylic acid {1-[1-(4-benzyloxy-benzyl)-2-(3,4-dihydro-1H-isoquinolin-2-yl)-2-oxo-ethylcarbamoyl]-3-methyl-butyl}-amide] | 29% | 81% | 5.62 |  |
| CC(C)(C)NC(=O)[C@H](Cc1ccc(OCc2ccccc2)cc1)NC(=O)[C@H](Cc1ccc(OC(C)(C)C)cc1)NC(=O)N1CCCCCC1 [Example 163, [S-(R*,R*)]-Azepane-1-carboxylic acid [1-[2-(4-benzyloxy-phenyl)-1-tert-butylcarbamoyl-ethylcarbamoyl]-2-(4-tert-butoxy-phenyl)-ethyl]-amide] |  |  | 6.31 |  |
| CC(C)C[C@H](NC(=O)N1CCCCCC1)C(=O)N[C@@H](Cc1ccc(OCc2ccccc2)cc1)C(=O)N1CCC(N2CCCCC2)CC1 [Example 185, [S-(R*,R*)]-Azepane-1-carboxylic acid {1-[1-(4-benzyloxy-benzyl)-2-[1,4′]bipiperidinyl-1′-yl-2-oxo-ethylcarbamoyl]-3-methyl-butyl}-amide] |  |  | 5.64 |  |
| CC(C)C[C@H](NC(=O)N1CCCCCC1)C(=O)N[C@@H](Cc1ccc(OCc2ccccc2)cc1)C(=O)Nc1cccc(O)c1 [Example 269, [S-(R*,R*)]-Azepane-1-carboxylic acid {1-[2-(4-benzyloxy-phenyl)-1-(3-hydroxy-phenylcarbamoyl)-ethylcarbamoyl]-3-methyl-butyl}-amide] |  |  | 5.55 |  |
| COc1ccc(N2CCN(C(=O)[C@H](Cc3ccc(OCc4ccccc4)cc3)NC(=O)[C@H](CC(C)C)NC(=O)N3CCCCCC3)CC2)cc1 [Example 264, [S-(R*,R*)]-Azepane-1-carboxylic acid (1-{1-(4-benzyloxy-benzyl)-2-[4-(4-methoxy-phenyl)-piperazin-1-yl]-2-oxo-ethylcarbamoyl}-3-methyl-butyl)-amide] |  |  | 6.13 |  |
| Cc1nn(C)c(Cl)c1S(=O)(=O)N[C@@H](CC(C)C)C(=O)N[C@@H](Cc1ccc(OCc2ccccc2)cc1)C(=O)OC(C)(C)C (relative stereo) [Example 110, [S-(R*,R*)]-3-(4-Benzyloxy-phenyl)-2-[2-(5-chloro-1,3-dimethyl-1H-pyrazole-4-sulfonylamino)-4-methyl-pentanoylamino]-propionic acid tert-butyl ester] |  |  |  | Inhibition of Calcium Flux in IMR-32 Cells % Inhibition at 10 μM: 76% |
| CC(C)C[C@H](NC(=O)c1ccc(C(C)(C)C)cc1)C(=O)N[C@@H](Cc1ccc(OCc2ccccc2)cc1)C(=O)OC(C)(C)C (relative stereo) [Example 93, [S-(R*,R*)]-3-(4-Benzyloxy-phenyl)-2-[2-(4-tert-butyl-benzoylamino)-4-methyl-pentanoylamino]-propionic acid tert-butyl ester] |  |  |  | Inhibition of Calcium Flux in IMR-32 Cells % Inhibition at 1 μM: 17% |
| Cc1noc(C)c1S(=O)(=O)N[C@@H](CC(C)C)C(=O)N[C@@H](Cc1ccc(OCc2ccccc2)cc1)C(=O)OC(C)(C)C [Example 111, [S-(R*,R*)]-3-(4-Benzyloxy-phenyl)-2-[2-(3,5-dimethyl-isoxazole-4-sulfonylamino)-4-methyl-pentanoylamino]-propionic acid tert-butyl ester] | 50% | 96% | 5.96 |  |
| CC(C)C[C@H](NC(=O)C(C)(C)C)C(=O)N[C@@H](Cc1ccc(OCc2ccccc2)cc1)C(=O)OC(C)(C)C (relative stereo) [Example 129, [S-(R*,R*)]-3-(4-Benzyloxy-phenyl)-2-[2-(2,2-dimethyl-propionylamino)-4-methyl-pentanoylamino]-propionic acid tert-butyl ester] |  |  |  | Inhibition of Calcium Flux in IMR-32 Cells % Inhibition at 10 μM: 74% |
| CC(C)C[C@H](NC(=O)Nc1ccc(C(F)(F)F)cc1)C(=O)N[C@@H](Cc1ccc(OCc2ccccc2)cc1)C(=O)OC(C)(C)C (relative stereo) [Example 70, [S-(R*,R*)]-3-(4-Benzyloxy-phenyl)-2-{4-methyl-2-[3-(4-trifluoromethyl-phenyl)-ureido]-pentanoylamino}-propionic acid tert-butyl ester] |  |  |  | Inhibition of Calcium Flux in IMR-32 Cells % Inhibition at 1 μM: 25% |
| CCC(C)NC(=O)C(Cc1ccc(OCc2ccccc2)cc1)NC(=O)C(CC(C)C)NC(=O)N1CCCCCC1 (stereo not shown) [Example 243, Azepane-1-carboxylic acid {1-[2-(4-benzyloxy-phenyl)-1-sec-butylcarbamoyl-ethylcarbamoyl]-3-methyl-butyl}-amide] | 48% | 89% |  |  |
| CSCCC(CO)NC(=O)[C@H](Cc1ccc(OCc2ccccc2)cc1)NC(=O)C(CC(C)C)NC(=O)N1CCCCCC1 (stereo in doubt) [Example 238, Azepane-1-carboxylic acid {(R)-1-[(S)-2-(4-benzyloxy-phenyl)-(S)-1-(1-hydroxymethyl-3-methylsulfanyl-propylcarbamoyl)-ethylcarbamoyl]-3-methyl-butyl}-amide] | 62% | 95% | 6.13 |  |
| CC(C)CC(NC(=O)N1CCCCCC1)C(=O)NC(Cc1ccc(OCc2ccccc2)cc1)C(=O)NC1CCCN(CC(C)C)C1 (stereo not shown) [Example 198, Azepane-1-carboxylic acid {1-[2-(4-benzyloxy-phenyl)-1-(1-isobutyl-piperidin-3-ylcarbamoyl)-ethylcarbamoyl]-3-methyl-butyl}-amide] |  |  | 6.44 |  |
| CC(C)CC(NC(=O)N1CCCCCC1)C(=O)NC(Cc1ccc(OCc2ccccc2)cc1)C(=O)NCCC1CCCN1C (stereo not shown) [Example 193, Azepane-1-carboxylic acid (1-{2-(4-benzyloxy-phenyl)-1-[2-(1-methyl-pyrrolidin-2-yl)-ethylcarbamoyl]-ethylcarbamoyl}-3-methyl-butyl)-amide] |  |  | 5.49 |  |
| CC(C)C[C@H](NC(=O)c1ccno1)C(=O)N[C@@H](Cc1ccc(OCc2ccccc2)cc1)C(=O)OC(C)(C)C (relative stereo) [Example 123, [S-(R*,R*)]-3-(4-Benzyloxy-phenyl)-2-{2-1(isoxazole-5-carbonyl)-amino]-4-methyl-pentanoylamino}-propionic acid tert-butyl ester] |  |  |  | Inhibition of Calcium Flux in IMR-32 Cells % Inhibition at 10 μM: 67% |
| CC(C)C[C@H](NC(=O)Nc1cccc(Cl)c1Cl)C(=O)N[C@@H](Cc1ccc(OCc2ccccc2)cc1)C(=O)OC(C)(C)C (relative stereo) [Example 81, [S-(R*,R*)]-3-(4-Benzyloxy-phenyl)-2-{2-[3-(2,3-dichloro-phenyl)-ureido]-4-methyl-pentanoylamino}-propionic acid tert-butyl ester] |  |  |  | Inhibition of Calcium Flux in IMR-32 Cells % Inhibition at 1 μM: 32% |
| CC(C)C[C@H](NC(=O)N1CCCCCC1)C(=O)N[C@@H](Cc1ccc(OCc2ccccc2)cc1)C(=O)NC1CCCCCC1 [Example 208, [S-(R*,R*)]-Azepane-1-carboxylic acid {1-[2-(4-benzyloxy-phenyl)-1-cycloheptylcarbamoyl-ethylcarbamoyl]-3-methyl-butyl}-amide] | 38% | 81% | 5.74 |  |
| Cc1cc(NC(=O)[C@H](Cc2ccc(OCc3ccccc3)cc2)NC(=O)[C@H](CC(C)C)NC(=O)N2CCCCCC2)c(C)cc1O [Example 267, [S-(R*,R*)]-Azepane-1-carboxylic acid {1-[2-(4-benzyloxy-phenyl)-1-(4-hydroxy-2,5-dimethyl-phenylcarbamoyl)-ethylcarbamoyl]-3-methyl-butyl}-amide] |  |  | 5.36 |  |
| CC(C)C[C@H](NC(=O)N1CCCCCC1)C(=O)N[C@@H](Cc1ccc(OCc2ccccc2)cc1)C(=O)NCC(C)NC(C)C (stereo partly shown) [Example 242] |  |  |  | Inhibition of Calcium Flux in IMR-32 Cells % Inhibition at 1 μM: 23% |
| CCCNC(=O)[C@H](Cc1ccc(OCc2ccccc2)cc1)NC(=O)[C@H](CC(C)C)NC(=O)N1CCCCCC1 [Example 169, [S-(R*,R*)]-Azepane-1-carboxylic acid {1-[2-(4-benzyloxy-phenyl)-1-propylcarbamoyl-ethylcarbamoyl]-3-methyl-butyl}-amide] |  |  | 5.80 |  |
| CC(C)CC(NC(=O)N1CCCCCC1)C(=O)NC(Cc1ccc(OCc2ccccc2)cc1)C(=O)N1CCCC1CNc1ccccc1 (stereo not shown) [Example 218, Azepane-1-carboxylic acid {1-[1-(4-benzyloxy-benzyl)-2-oxo-2-(2-phenylaminomethyl-pyrrolidin-1-yl)-ethylcarbamoyl]-3-methyl-butyl}-amide] | 62% | 93% |  |  |
| CC(C)C[C@H](NC(=O)N1CCCCCC1)C(=O)N[C@@H](Cc1ccc(OCc2ccccc2)cc1)C(=O)Nc1cccnc1 [Example 254, [S-(R*,R*)]-Azepane-1-carboxylic acid {1-[2-(4-benzyloxy-phenyl)-1-(pyridin-3-ylcarbamoyl)-ethylcarbamoyl]-3-methyl-butyl}-amide] | 39% | 83% | 5.80 |  |
| CC(C)C[C@H](NC(=O)N1CCCCCC1)C(=O)N[C@@H](Cc1ccc(OCc2ccccc2)cc1)C(=O)N(CCO)Cc1ccccc1 [Example 251, S-(R*,R*)]-Azepane-1-carboxylic acid {1-[1-[benzyl-(2-hydroxy-ethyl)-carbamoyl]-2-(4-benzyloxy-phenyl)-ethylcarbamoyl]-3-methyl-butyl}-amide] |  |  | 6.13 |  |
